Assay results published in US20240228504A1, “SUBSTITUTED TRICYCLIC AMIDES, ANALOGUES THEREOF, AND METHODS USING SAME” (Arbutus Biopharma Corporation, priority 2020, published 2024).

Tested on: HBV rcDNA in HepDE19 cells
Test: HepDE19 assay with bDNA quantitation of HBV rcDNA
Assay type: cell-based, hepatitis B virus
Details: HepDE19 assay, inhibition of rcDNA formation, bDNA quantitation; read-out: DE-19bDNA EC50

| SMILES | EC50 |
| --- | --- |
| CN(C(=O)c1cc2c(F)c(F)ccc2[nH]1)C1CNCc2[nH]c(=O)c3cc(F)c(F)cc3c21 (single isomer, unassigned) [Compound 119, N-(8,9-Difluoro-6-oxo-1,2,3,4,5,6-hexahydrobenzo[c][1,7]naphthyridin-1-yl)-4,5-difluoro-N-methyl-1H-indole-2-carboxamide] | 10 nM |
| CN(C(=O)c1ccc2ncsc2c1)C1CNCc2[nH]c(=O)c3cc(F)c(F)cc3c21 (single isomer, unassigned) [Compound 465, N-(8,9-difluoro-6-oxo-1,2,3,4,5,6-hexahydrobenzo[c][1,7]naphthyridin-1-yl)-N-methylbenzo[d]thiazole-6-carboxamide] | 3200 nM |
| CN(C(=O)c1cc2cc(F)ccc2[nH]1)C1CNCc2[nH]c(=O)c3cc(F)c(F)cc3c21 (single isomer, unassigned) [Compound 102, N-(8,9-Difluoro-6-oxo-1,2,3,4,5,6-hexahydrobenzo[c][1,7]naphthyridin-1-yl)-5-fluoro-N-methyl-1H-indole-2-carboxamide] | 1800 nM |
| CN(C(=O)c1cc2c(F)cccn2c1)C1CSCc2[nH]c(=O)c3cc(F)c(F)cc3c21 (single isomer, unassigned) [Compound 103, N-(8,9-Difluoro-6-oxo-1,4,5,6-tetrahydro-2H-thiopyrano[3,4-c]isoquinolin-1-yl)-8-fluoro-N-methylindolizine-2-carboxamide] | 2500 nM |
| CN(C(=O)c1cc2ccccc2[nH]1)C1CCCc2[nH]c(=O)c3cc(F)c(F)cc3c21 (single isomer, unassigned) [Compound 466, N-(8,9-Difluoro-6-oxo-1,2,3,4,5,6-hexahydrophenanthridin-1-yl)-N-methyl-1H-indole-2-carboxamide] | 2100 nM |
| CN(C(=O)c1cc2c(Cl)cccn2c1)C1CNCc2[nH]c(=O)c3cc(F)c(F)cc3c21 (single isomer, unassigned) [Compound 509, 8-Chloro-N-(8,9-Difluoro-6-oxo-1,2,3,4,5,6-hexahydrobenzo[c][1,7]naphthyridin-1-yl)-N-methylindolizine-2-carboxamide] | 10 nM |
| CN(C(=O)c1cc2ccccc2[nH]1)C1COCc2[nH]c(=O)c3cc(F)c(F)cc3c21 (single isomer, unassigned) [Compound 22, N-(8,9-Difluoro-6-oxo-1,4,5,6-tetrahydro-2H-pyrano[3,4-c]isoquinolin-1-yl)-N-methyl-1H-indole-2-carboxamide] | 10 nM |
| CN(C(=O)c1cc(F)c(C(F)F)c(F)c1)C1COCc2[nH]c(=O)c3cc(F)ccc3c21 (single isomer, unassigned) [Compound 178, 4-(Difluoromethyl)-3,5-difluoro-N-(8-fluoro-6-oxo-1,4,5,6-tetrahydro-2H-pyrano[3,4-c]isoquinolin-1-yl)-N-methylbenzamide] | 7400 nM |

Same assay, conditions: Hepatitis B virus, HepDE19, HepDE19 assay, inhibition of rcDNA formation, bDNA quantitation; read-out: DE-19bDNA EC50

| SMILES | EC50 |
| --- | --- |
| CN(C(=O)c1cc2nc(Cl)ccc2[nH]1)[C@@H]1COCc2[nH]c(=O)c3cc(F)c(F)cc3c21 [Compound 206, (S)-5-Chloro-N-(8,9-difluoro-6-oxo-1,4,5,6-tetrahydro-2H-pyrano[3,4-c]isoquinolin-1-yl)-N-methyl-1H-pyrrolo[3,2-b]pyridine-2-carboxamide] | 630 nM |
| CN(C(=O)c1ccc2ocnc2c1)[C@@H]1COCc2[nH]c(=O)c3cc(F)c(F)cc3c21 [Compound 426, (S)-N-(8,9-Difluoro-6-oxo-1,4,5,6-tetrahydro-2H-pyrano[3,4-c]isoquinolin-1-yl)-N-methylbenzo[d]oxazole-5-carboxamide] | 90 nM |
| CN(C(=O)c1ccc(C(F)F)cc1)[C@@H]1COCc2[nH]c(=O)c3cc(F)c(F)cc3c21 [Compound 111, (S)-N-(8,9-Difluoro-6-oxo-1,4,5,6-tetrahydro-2H-pyrano[3,4-c]isoquinolin-1-yl)-4-(difluoromethyl)-N-methylbenzamide] | 20 nM |
| O=C(N[C@@H]1COCc2[nH]c(=O)c3cc(F)c(F)cc3c21)c1ccc(Cl)c(F)c1 [Compound 159, (S)-4-chloro-N-(8,9-difluoro-6-oxo-1,4,5,6-tetrahydro-2H-pyrano[3,4-c]isoquinolin-1-yl)-3-fluorobenzamide] | 660 nM |
| CN(C(=O)c1cc2ccccc2[nH]1)C1CN(CCO)Cc2[nH]c(=O)c3cc(F)ccc3c21 (single isomer, unassigned) [Compound 79, N-(8-Fluoro-3-(2-hydroxyethyl)-6-oxo-1,2,3,4,5,6-hexahydrobenzo[c][1,7]naphthyridin-1-yl)-N-methyl-1H-indole-2-carboxamide] | 10000 nM |
| CN(C(=O)c1ccc2cc(C(F)(F)F)cn2c1)[C@@H]1COCc2[nH]c(=O)c3cc(F)c(F)cc3c21 [Compound 311, (S)-N-(8,9-Difluoro-6-oxo-1,4,5,6-tetrahydro-2H-pyrano[3,4-c]isoquinolin-1-yl)-N-methyl-2-(trifluoromethyl)indolizine-6-carboxamide] | 140 nM |
| CN(C(=O)c1cc2cc(Cl)ncc2[nH]1)[C@@H]1COCc2[nH]c(=O)c3cc(F)c(F)cc3c21 [Compound 204, (S)-5-Chloro-N-(8,9-difluoro-6-oxo-1,4,5,6-tetrahydro-2H-pyrano[3,4-c]isoquinolin-1-yl)-N-methyl-1H-pyrrolo[2,3-c]pyridine-2-carboxamide] | 40 nM |
| Cc1cccc2[nH]c(C(=O)N(C)[C@@H]3COCc4[nH]c(=O)c5cc(F)c(F)cc5c43)cc12 [Compound 330, (S)-N-(8,9-Difluoro-6-oxo-1,4,5,6-tetrahydro-2H-pyrano[3,4-c]isoquinolin-1-yl)-N,4-dimethyl-1H-indole-2-carboxamide] | 10 nM |
| CCN(C(=O)c1cn2cc(Cl)ccc2n1)[C@@H]1COCc2[nH]c(=O)c3cc(F)ccc3c21 [Compound 53, (S)-6-Chloro-N-ethyl-N-(8-fluoro-6-oxo-1,4,5,6-tetrahydro-2H-pyrano[3,4-c]isoquinolin-1-yl)imidazo[1,2-a]pyridine-2-carboxamide] | 2500 nM |
| CN(C(=O)c1cncc(F)c1)[C@@H]1COCc2[nH]c(=O)c3cc(F)c(F)cc3c21 [Compound 83, (S)-N-(8,9-Difluoro-6-oxo-1,4,5,6-tetrahydro-2H-pyrano[3,4-c]isoquinolin-1-yl)-5-fluoro-N-methylnicotinamide] | 7000 nM |
| CN(C(=O)c1cc2cc(F)c(F)cc2[nH]1)[C@@H]1COCc2c1c1cc(F)c(F)cc1c(=O)n2CCN [Compound 316] | 390 nM |
| CN(C(=O)c1cc2ccc(C(F)F)cn2c1)[C@@H]1COCc2[nH]c(=O)c3cc(F)c(F)cc3c21 [Compound 375, (S)-N-(8,9-Difluoro-6-oxo-1,4,5,6-tetrahydro-2H-pyrano[3,4-c]isoquinolin-1-yl)-6-(difluoromethyl)-N-methylindolizine-2-carboxamide] | 330 nM |
| CN(C(=O)c1ccc(-c2cc(F)cc(F)c2)cc1)[C@@H]1COCc2[nH]c(=O)c3cc(F)c(F)cc3c21 [Compound 286, (S)-N-(8,9-Difluoro-6-oxo-1,4,5,6-tetrahydro-2H-pyrano[3,4-c]isoquinolin-1-yl)-3′,5′-difluoro-N-methyl-[1,1′-biphenyl]-4-carboxamide] | 12900 nM |
| CN(C(=O)c1cc2cc(Br)cnc2[nH]1)[C@@H]1COCc2[nH]c(=O)c3cc(F)c(F)cc3c21 [Compound 192, (S)-5-Bromo-N-(8,9-difluoro-6-oxo-1,4,5,6-tetrahydro-2H-pyrano[3,4-c]isoquinolin-1-yl)-N-methyl-1H-pyrrolo[2,3-b]pyridine-2-carboxamide] | 260 nM |
